Test results reported in the supplement of paper PMC10307832.

Assays:
Test in all cases: relative viability (nuclei count vs DMSO), 5 days (fraction); higher = more cells survive
Tozasertib + Crizotinib = compound: Cc1cc(Nc2cc(N3CCN(C)CC3)nc(Sc3ccc(NC(=O)C4CC4)cc3)n2)n[nH]1 [Tozasertib] + C[C@@H](Oc1cc(-c2cnn(C3CCNCC3)c2)cnc1N)c1c(Cl)ccc(F)c1Cl [Crizotinib] (partner 1 µM)
Summary of the method: (§1)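 Relative viability equals treated-well nuclei counts divided by vehicle-well nuclei counts. Counts came from 4× images of lung cancer cell lines grown in 1536-well plates for 5 days after pin-tool dosing on the day after seeding. Dosing used one drug alone or a fixed anchor-drug dose plus five library-drug doses (not always all listed) in √10 steps, and values are medians of duplicate plates.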

Tozasertib + Olaparib = compound: Cc1cc(Nc2cc(N3CCN(C)CC3)nc(Sc3ccc(NC(=O)C4CC4)cc3)n2)n[nH]1 [Tozasertib] + O=C(c1cc(Cc2n[nH]c(=O)c3ccccc23)ccc1F)N1CCN(C(=O)C2CC2)CC1 [Olaparib] (partner 8 µM)
Summary of the method: as §1

Tozasertib + Navitoclax = compound: Cc1cc(Nc2cc(N3CCN(C)CC3)nc(Sc3ccc(NC(=O)C4CC4)cc3)n2)n[nH]1 [Tozasertib] + CC1(C)CCC(c2ccc(Cl)cc2)=C(CN2CCN(c3ccc(C(=O)NS(=O)(=O)c4ccc(N[C@H](CCN5CCOCC5)CSc5ccccc5)c(S(=O)(=O)C(F)(F)F)c4)cc3)CC2)C1 [Navitoclax] (partner 0.5 µM)
Summary of the method: as §1

Tozasertib + Linsitinib = compound: Cc1cc(Nc2cc(N3CCN(C)CC3)nc(Sc3ccc(NC(=O)C4CC4)cc3)n2)n[nH]1 [Tozasertib] + C[C@]1(O)C[C@@H](c2nc(-c3ccc4ccc(-c5ccccc5)nc4c3)c3c(N)nccn32)C1 [Linsitinib] (partner 1 µM)
Summary of the method: as §1

Tozasertib + Bortezomib = compound: Cc1cc(Nc2cc(N3CCN(C)CC3)nc(Sc3ccc(NC(=O)C4CC4)cc3)n2)n[nH]1 [Tozasertib] + CC(C)C[C@H](NC(=O)[C@H](Cc1ccccc1)NC(=O)c1cnccn1)B(O)O [Bortezomib] (partner 0.002 µM)
Summary of the method: as §1

Tozasertib + Lapatinib = compound: Cc1cc(Nc2cc(N3CCN(C)CC3)nc(Sc3ccc(NC(=O)C4CC4)cc3)n2)n[nH]1 [Tozasertib] + CS(=O)(=O)CCNCc1ccc(-c2ccc3ncnc(Nc4ccc(OCc5cccc(F)c5)c(Cl)c4)c3c2)o1 [Lapatinib] (partner 2 µM)
Summary of the method: as §1

Tozasertib + Pictilisib = compound: Cc1cc(Nc2cc(N3CCN(C)CC3)nc(Sc3ccc(NC(=O)C4CC4)cc3)n2)n[nH]1 [Tozasertib] + CS(=O)(=O)N1CCN(Cc2cc3nc(-c4cccc5[nH]ncc45)nc(N4CCOCC4)c3s2)CC1 [Pictilisib] (partner 1 µM)
Summary of the method: as §1

Tozasertib + Alpelisib = compound: Cc1cc(Nc2cc(N3CCN(C)CC3)nc(Sc3ccc(NC(=O)C4CC4)cc3)n2)n[nH]1 [Tozasertib] + Cc1nc(NC(=O)N2CCC[C@H]2C(N)=O)sc1-c1ccnc(C(C)(C)C(F)(F)F)c1 [Alpelisib] (partner 2 µM)
Summary of the method: as §1

Tozasertib + Foretinib = compound: Cc1cc(Nc2cc(N3CCN(C)CC3)nc(Sc3ccc(NC(=O)C4CC4)cc3)n2)n[nH]1 [Tozasertib] + COc1cc2c(Oc3ccc(NC(=O)C4(C(=O)Nc5ccc(F)cc5)CC4)cc3F)ccnc2cc1OCCCN1CCOCC1 [Foretinib] (partner 0.25 µM)
Summary of the method: as §1

Tozasertib = compound: Cc1cc(Nc2cc(N3CCN(C)CC3)nc(Sc3ccc(NC(=O)C4CC4)cc3)n2)n[nH]1 [Tozasertib]
Summary of the method: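 Only plates meeting two conditions passed: control CV below 25% and at least one doubling. Lung cancer cell lines, kept overnight at 37 °C in 1536-well plates, were pinned with five library-drug doses (not always all listed) √10 apart on vehicle-anchored plates and grown 5 days without medium change. A one-step fix, permeabilisation and Hoechst stain preceded 4× imaging and MetaXpress nuclear counting. Viability equals treated-well nuclei divided by vehicle-well nuclei, as the median over plates.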

Tozasertib + Dasatinib = compound: Cc1cc(Nc2cc(N3CCN(C)CC3)nc(Sc3ccc(NC(=O)C4CC4)cc3)n2)n[nH]1 [Tozasertib] + Cc1nc(Nc2ncc(C(=O)Nc3c(C)cccc3Cl)s2)cc(N2CCN(CCO)CC2)n1 [Dasatinib] (partner 0.075 µM)
Summary of the method: as §1

Tozasertib + Phenformin = compound: Cc1cc(Nc2cc(N3CCN(C)CC3)nc(Sc3ccc(NC(=O)C4CC4)cc3)n2)n[nH]1 [Tozasertib] + N=C(N)NC(=N)NCCc1ccccc1 [Phenformin] (partner 250 µM)
Summary of the method: as §1

Tozasertib + Luminespib = compound: Cc1cc(Nc2cc(N3CCN(C)CC3)nc(Sc3ccc(NC(=O)C4CC4)cc3)n2)n[nH]1 [Tozasertib] + CCNC(=O)c1noc(-c2cc(C(C)C)c(O)cc2O)c1-c1ccc(CN2CCOCC2)cc1 [Luminespib] (partner 0.01 µM)
Summary of the method: as §1

Tozasertib + OSI-027 = compound: Cc1cc(Nc2cc(N3CCN(C)CC3)nc(Sc3ccc(NC(=O)C4CC4)cc3)n2)n[nH]1 [Tozasertib] + COc1cccc2cc(-c3nc([C@H]4CC[C@H](C(=O)O)CC4)n4ncnc(N)c34)[nH]c12 [OSI-027] (partner 0.5 µM)
Summary of the method: as §1

With EBC-1 the relative viability (Tozasertib + Crizotinib; first compound 0.004 µM) was 0.234, the relative viability (Tozasertib + Crizotinib; first compound 0.01265 µM) was 0.202 and the relative viability (Tozasertib + Crizotinib; first compound 0.04 µM) was 0.198. The relative viability (Tozasertib + Crizotinib; first compound 0.1265 µM) was 0.151, the relative viability (Tozasertib + Olaparib; first compound 0.004 µM) was 0.697 and the relative viability (Tozasertib + Olaparib; first compound 0.01265 µM) was 0.724. The relative viability (Tozasertib + Olaparib; first compound 0.04 µM) was 0.737, the relative viability (Tozasertib + Olaparib; first compound 0.1265 µM) was 0.608 and the relative viability (Tozasertib + Navitoclax; first compound 0.004 µM) was 0.351. For the same cell line, the relative viability (Tozasertib + Navitoclax; first compound 0.01265 µM) was 0.329, the relative viability (Tozasertib + Navitoclax; first compound 0.04 µM) was 0.372 and the relative viability (Tozasertib + Navitoclax; first compound 0.1265 µM) was 0.251. The relative viability (Tozasertib + Linsitinib; first compound 0.004 µM) was 0.866, the relative viability (Tozasertib + Linsitinib; first compound 0.01265 µM) was 0.841 and the relative viability (Tozasertib + Linsitinib; first compound 0.04 µM) was 0.886. It also gave a relative viability (Tozasertib + Linsitinib; first compound 0.1265 µM) of 0.486, a relative viability (Tozasertib + Bortezomib; first compound 0.004 µM) of 0.692 and a relative viability (Tozasertib + Bortezomib; first compound 0.01265 µM) of 0.461. It also gave a relative viability (Tozasertib + Bortezomib; first compound 0.04 µM) of 0.532, a relative viability (Tozasertib + Bortezomib; first compound 0.1265 µM) of 0.367 and a relative viability (Tozasertib + Lapatinib; first compound 0.004 µM) of 0.237. The relative viability (Tozasertib + Lapatinib; first compound 0.01265 µM) was 0.213, the relative viability (Tozasertib + Lapatinib; first compound 0.04 µM) was 0.209 and the relative viability (Tozasertib + Lapatinib; first compound 0.1265 µM) was 0.173. The relative viability (Tozasertib + Pictilisib; first compound 0.004 µM) was 0.429, the relative viability (Tozasertib + Pictilisib; first compound 0.01265 µM) was 0.333 and the relative viability (Tozasertib + Pictilisib; first compound 0.04 µM) was 0.371. For the same cell line, the relative viability (Tozasertib + Pictilisib; first compound 0.1265 µM) was 0.39, the relative viability (Tozasertib + Alpelisib; first compound 0.004 µM) was 0.814 and the relative viability (Tozasertib + Alpelisib; first compound 0.01265 µM) was 0.801. For the same cell line, the relative viability (Tozasertib + Alpelisib; first compound 0.1265 µM) was 0.578, the relative viability (Tozasertib + Foretinib; first compound 0.004 µM) was 0.111 and the relative viability (Tozasertib + Foretinib; first compound 0.01265 µM) was 0.0987. The relative viability (Tozasertib + Foretinib; first compound 0.04 µM) was 0.109, the relative viability (Tozasertib + Foretinib; first compound 0.1265 µM) was 0.105 and the relative viability (Tozasertib; 0.004 µM) was 1.12. It also gave a relative viability (Tozasertib; 0.01265 µM) of 1.01, a relative viability (Tozasertib; 0.04 µM) of 1.01 and a relative viability (Tozasertib; 0.1265 µM) of 0.776.

With NCI-H1623 the relative viability (Tozasertib + Dasatinib; first compound 0.004 µM) was 0.549, the relative viability (Tozasertib + Dasatinib; first compound 0.01265 µM) was 0.515 and the relative viability (Tozasertib + Dasatinib; first compound 0.04 µM) was 0.536. It also gave a relative viability (Tozasertib + Dasatinib; first compound 0.1265 µM) of 0.556, a relative viability (Tozasertib + Phenformin; first compound 0.004 µM) of 0.552 and a relative viability (Tozasertib + Phenformin; first compound 0.01265 µM) of 0.541. The relative viability (Tozasertib + Phenformin; first compound 0.04 µM) was 0.583, the relative viability (Tozasertib + Phenformin; first compound 0.1265 µM) was 0.526 and the relative viability (Tozasertib + Luminespib; first compound 0.004 µM) was 0.43. It also gave a relative viability (Tozasertib + Luminespib; first compound 0.04 µM) of 0.473, a relative viability (Tozasertib + Luminespib; first compound 0.1265 µM) of 0.505 and a relative viability (Tozasertib + OSI-027; first compound 0.004 µM) of 0.45. For the same cell line, the relative viability (Tozasertib + OSI-027; first compound 0.01265 µM) was 0.428, the relative viability (Tozasertib + OSI-027; first compound 0.04 µM) was 0.487 and the relative viability (Tozasertib + OSI-027; first compound 0.1265 µM) was 0.453. It also gave a relative viability (Tozasertib + Foretinib; first compound 0.004 µM) of 0.781, a relative viability (Tozasertib + Foretinib; first compound 0.01265 µM) of 0.829 and a relative viability (Tozasertib + Foretinib; first compound 0.04 µM) of 0.898. The relative viability (Tozasertib + Foretinib; first compound 0.1265 µM) was 0.761, the relative viability (Tozasertib; 0.004 µM) was 0.859 and the relative viability (Tozasertib; 0.01265 µM) was 0.965. For the same cell line, the relative viability (Tozasertib; 0.04 µM) was 0.966, the relative viability (Tozasertib; 0.1 µM, anchor plate) was 0.434 and the relative viability (Tozasertib; 0.1265 µM) was 0.929.
